Tested on: MV-4-11 cells
Test: Gene expression microarray analysis (Affymetrix PrimeView) and GSEA
Format: cell-based, human
Set-up: RFU PODN (11730768_x_at) / Fold change /veh PODN (11730768_x_at) / RFU LINC00158 (11744669_a_at) / Fold change /veh LINC00158 (11744669_a_at) / RFU DUSP10 (11751237_a_at) / Fold change /veh DUSP10 (11751237_a_at) / RFU ID3 (11757404_x_at) / Fold change /veh ID3 (11757404_x_at) / RFU PLEKHG5 (11737974_s_at) / Fold change /veh PLEKHG5 (11737974_s_at) / RFU LRRC4B (11730491_at) / Fold change /veh LRRC4B (11730491_at) / RFU GIMAP4 (11747438_a_at) / Fold change /veh GIMAP4 (11747438_a_at) / RFU KRT8 (11758183_x_at) / Fold change /veh KRT8 (11758183_x_at) / RFU CNN1 (11734310_a_at) / Fold change /veh CNN1 (11734310_a_at) / RFU VPS37D (11726825_at) / Fold change /veh VPS37D (11726825_at) / RFU C10orf10 (11716522_x_at) / Fold change /veh C10orf10 (11716522_x_at) / RFU KIR2DL2 /// KIR2DL4 /// KIR2DL5A /// KIR2DL5B /// KIR2DS1 /// KIR2DS2 /// KIR2DS3 /// KIR2DS4 /// KIR3DL3 /// KIR3DL3 /// KIR3DS1 (11738374_at) / Fold change /veh KIR2DL2 /// KIR2DL4 /// KIR2DL5A /// KIR2DL5B /// KIR2DS1 /// KIR2DS2 /// KIR2DS3 /// KIR2DS4 /// KIR3DL3 /// KIR3DL3 /// KIR3DS1 (11738374_at) / RFU C1QL1 (11718748_at) / Fold change /veh C1QL1 (11718748_at) / RFU TMPRSS4 (11747572_a_at) / Fold change /veh TMPRSS4 (11747572_a_at) / RFU HAMP (11756126_x_at) / Fold change /veh HAMP (11756126_x_at) / RFU RNFT2 (11725882_a_at) / Fold change /veh RNFT2 (11725882_a_at) / RFU NR4A2 (11747474_a_at) / Fold change /veh NR4A2 (11747474_a_at) / RFU ABCC12 (11746883_a_at) / Fold change /veh ABCC12 (11746883_a_at) / RFU TMEM136 (11760407_x_at) / Fold change /veh TMEM136 (11760407_x_at) / RFU CLDN22 /// WWC2 (11732394_at) / Fold change /veh CLDN22 /// WWC2 (11732394_at) / RFU HLA-DPB1 (11760878_x_at) / Fold change /veh HLA-DPB1 (11760878_x_at) / RFU SPINT1 (11716480_a_at) / Fold change /veh SPINT1 (11716480_a_at) / RFU GAP43 (11754022_s_at) / Fold change /veh GAP43 (11754022_s_at) / RFU A4GNT (11735810_at) / Fold change /veh A4GNT (11735810_at) / RFU PRB3 (11715151_x_at) / Fold change /veh PRB3 (11715151_x_at) / RFU TUBB4B (11761932_at) / Fold change /veh TUBB4B (11761932_at) / RFU CAPN14 (11732068_a_at) / Fold change /veh CAPN14 (11732068_a_at) / RFU TMCC2 (11721928_a_at) / Fold change /veh TMCC2 (11721928_a_at) / RFU IRGQ (11745062_a_at) / Fold change /veh IRGQ (11745062_a_at) / RFU FAM174B (11720279_a_at) / Fold change /veh FAM174B (11720279_a_at) / RFU TMPRSS4 (11748680_a_at) / Fold change /veh TMPRSS4 (11748680_a_at) / RFU FAM212B (11763350_a_at) / Fold change /veh FAM212B (11763350_a_at) / RFU PLEKHG5 (11743358_a_at) / Fold change /veh PLEKHG5 (11743358_a_at) / RFU ZSCAN30 (11745921_a_at) / Fold change /veh ZSCAN30 (11745921_a_at) / RFU CMKLR1 (11741424_a_at) / Fold change /veh CMKLR1 (11741424_a_at) / RFU LOC101060620 /// MAPK8IP1 (11723275_at) / Fold change /veh LOC101060620 /// MAPK8IP1 (11723275_at) / RFU SPTSSB (11747773_x_at) / Fold change /veh SPTSSB (11747773_x_at) / RFU PRSS12 (11739890_at) / Fold change /veh PRSS12 (11739890_at) / RFU BIN1 (11741810_x_at) / Fold change /veh BIN1 (11741810_x_at) / RFU WNT11 (11732464_a_at) / Fold change /veh WNT11 (11732464_a_at) / RFU C10orf10 (11716521_a_at) / Fold change /veh C10orf10 (11716521_a_at) / RFU C5orf56 (11738089_at) / Fold change /veh C5orf56 (11738089_at) / RFU CYB561 (11721691_x_at) / Fold change /veh CYB561 (11721691_x_at) / RFU ANKRD19P (11752326_a_at) / Fold change /veh ANKRD19P (11752326_a_at) / RFU OR2T12 /// OR2T33 /// OR2T8 (11738714_s_at) / Fold change /veh OR2T12 /// OR2T33 /// OR2T8 (11738714_s_at) / RFU VCAN (11748164_a_at) / Fold change /veh VCAN (11748164_a_at) / RFU JSRP1 (11732532_at) / Fold change /veh JSRP1 (11732532_at) / RFU KRTAP10-11 (11738290_x_at) / Fold change /veh KRTAP10-11 (11738290_x_at) / RFU MYO3A (11730013_a_at) / Fold change /veh MYO3A (11730013_a_at) / RFU EBF3 (11725865_a_at) / Fold change /veh EBF3 (11725865_a_at) / RFU CAMK2N1 (11719241_x_at) / Fold change /veh CAMK2N1 (11719241_x_at) / RFU C5orf56 (11738088_a_at) / Fold change /veh C5orf56 (11738088_a_at) / RFU OLFML3 (11715873_a_at) / Fold change /veh OLFML3 (11715873_a_at) / RFU LOC100653217 /// NTM (11731650_a_at) / Fold change /veh LOC100653217 /// NTM (11731650_a_at) / RFU MAPK11 (11762145_a_at) / Fold change /veh MAPK11 (11762145_a_at) / RFU FIZ1 (11724087_x_at) / Fold change /veh FIZ1 (11724087_x_at) / RFU OASL (11726364_x_at) / Fold change /veh OASL (11726364_x_at) / RFU SOX15 (11748057_x_at) / Fold change /veh SOX15 (11748057_x_at) / RFU CD79A (11719716_a_at) / Fold change /veh CD79A (11719716_a_at) / RFU HIST1H1D (11736915_at) / Fold change /veh HIST1H1D (11736915_at) / RFU CASKIN2 (11723855_a_at) / Fold change /veh CASKIN2 (11723855_a_at) / RFU LOC730098 (11760151_x_at) / Fold change /veh LOC730098 (11760151_x_at) / RFU OR4N2 (11742367_at) / Fold change /veh OR4N2 (11742367_at) / RFU PRRT2 (11749266_a_at) / Fold change /veh PRRT2 (11749266_a_at) / RFU SNX32 (11753110_a_at) / Fold change /veh SNX32 (11753110_a_at) / RFU CDHR5 (11726645_a_at) / Fold change /veh CDHR5 (11726645_a_at) / RFU RCAN1 (11760418_a_at) / Fold change /veh RCAN1 (11760418_a_at) / RFU FAM167A (11723789_a_at) / Fold change /veh FAM167A (11723789_a_at) / RFU FAM26E (11764081_at) / Fold change /veh FAM26E (11764081_at) / RFU ISYNA1 (11749810_s_at) / Fold change /veh ISYNA1 (11749810_s_at) / RFU ACY1 (11761880_at) / Fold change /veh ACY1 (11761880_at) / RFU 11764098_at / Fold change /veh 11764098_at / RFU SAMD14 (11745864_x_at) / Fold change /veh SAMD14 (11745864_x_at) / RFU NPB (11741838_a_at) / Fold change /veh NPB (11741838_a_at) / RFU TMPRSS6 (11731388_a_at) / Fold change /veh TMPRSS6 (11731388_a_at) / RFU KRTAP10-2 (11738614_at) / Fold change /veh KRTAP10-2 (11738614_at) / RFU ARHGAP8 /// PRR5-ARHGAP8 (11727945_x_at) / Fold change /veh ARHGAP8 /// PRR5-ARHGAP8 (11727945_x_at) / RFU KRTAP5-7 /// NADSYN1 (11734609_at) / Fold change /veh KRTAP5-7 /// NADSYN1 (11734609_at) / RFU RASL12 (11751679_a_at) / Fold change /veh RASL12 (11751679_a_at) / RFU CDKN2B (11736163_a_at) / Fold change /veh CDKN2B (11736163_a_at) / RFU PRF1 (11729649_at) / Fold change /veh PRF1 (11729649_at) / RFU, ZNF638 /// ZNF638-IT1 / Fold change vs veh, ZNF638 /// ZNF638-IT1 / RFU, PANK3 / Fold change vs veh, PANK3 / RFU, SH3YL1 / Fold change vs veh, SH3YL1 / RFU, ZEB2 / Fold change vs veh, ZEB2 / RFU, NRIP1 / Fold change vs veh, NRIP1 / RFU, PTTG1IP / Fold change vs veh, PTTG1IP / RFU, CAPN2 / Fold change vs veh, CAPN2 / RFU, MED14 / Fold change vs veh, MED14 / RFU, SNORA58 / Fold change vs veh, SNORA58 / RFU, C1orf63 / Fold change vs veh, C1orf63 / RFU, LRRFIP1 / Fold change vs veh, LRRFIP1 / RFU, NDUFAF7 / Fold change vs veh, NDUFAF7 / RFU, SLC12A2 / Fold change vs veh, SLC12A2 / RFU, IBTK / Fold change vs veh, IBTK / RFU, ESF1 / Fold change vs veh, ESF1 / Fold change vs veh, TMEM50B / RFU, TAOK1 / Fold change vs veh, TAOK1 / RFU, ACBD3 / Fold change vs veh, ACBD3 / RFU, TMA16 / Fold change vs veh, TMA16 / RFU, RWDD3 / Fold change vs veh, RWDD3 / RFU, BCAT1 / Fold change vs veh, BCAT1 / RFU, EDEM3 / Fold change vs veh, EDEM3 / RFU, TMEM33 / Fold change vs veh, TMEM33 / RFU, WDR75 / Fold change vs veh, WDR75 / RFU, AHCTF1 / Fold change vs veh, AHCTF1 / RFU, TFRC / Fold change vs veh, TFRC / RFU, ZDHHC17 / Fold change vs veh, ZDHHC17 / RFU, NOM1 / Fold change vs veh, NOM1 / RFU, ARL8B / Fold change vs veh, ARL8B / RFU, ZBTB11 / Fold change vs veh, ZBTB11 / RFU, TAMM41 / Fold change vs veh, TAMM41 / RFU, KIAA1704 /// LOC100996395 / Fold change vs veh, KIAA1704 /// LOC100996395 / RFU, ING1 / Fold change vs veh, ING1 / RFU, TRMT61B / Fold change vs veh, TRMT61B / RFU, FUBP3 / Fold change vs veh, FUBP3 / RFU, TP53 / Fold change vs veh, TP53 / RFU, TNKS2 / Fold change vs veh, TNKS2 / RFU, ZFP14 / Fold change vs veh, ZFP14 / RFU, ACTR2 / Fold change vs veh, ACTR2 / RFU, PPP3R1 / Fold change vs veh, PPP3R1 / RFU, PIK3R1 / Fold change vs veh, PIK3R1 / RFU, HNRNPA1 / Fold change vs veh, HNRNPA1 / RFU, RNF170 / Fold change vs veh, RNF170 / RFU, ZNF28 / Fold change vs veh, ZNF28 / RFU, RNGTT / Fold change vs veh, RNGTT / RFU, OGT / Fold change vs veh, OGT / RFU, BRD1 / Fold change vs veh, BRD1 / RFU, MARS / Fold change vs veh, MARS / RFU, ZNF655 / Fold change vs veh, ZNF655 / RFU, FAHD1 / Fold change vs veh, FAHD1 / RFU, BDP1 / Fold change vs veh, BDP1 / RFU, LRRCC1 / Fold change vs veh, LRRCC1 / RFU, ARID1A / Fold change vs veh, ARID1A / RFU, ZNF146 / Fold change vs veh, ZNF146 / RFU, ZNF330 / Fold change vs veh, ZNF330 / RFU, GPN3 / Fold change vs veh, GPN3 / RFU, C9orf123 / Fold change vs veh, C9orf123 / RFU, N4BP2L2 / Fold change vs veh, N4BP2L2 / RFU, ARFIP1 / Fold change vs veh, ARFIP1 / RFU, FAM179B / Fold change vs veh, FAM179B / RFU, BCL10 / Fold change vs veh, BCL10 / RFU, UHRF1BP1L / Fold change vs veh, UHRF1BP1L / RFU, BET1 / Fold change vs veh, BET1 / RFU, CNOT2 / Fold change vs veh, CNOT2 / RFU, ZNF268 / Fold change vs veh, ZNF268 / Fold change vs veh, ZNF507 / RFU, DGCR2 / Fold change vs veh, DGCR2 / RFU, WDSUB1 / Fold change vs veh, WDSUB1 / Fold change vs veh, HSP90B1 /// MIR3652 / RFU, ADSS / Fold change vs veh, ADSS / RFU, GK / Fold change vs veh, GK / RFU, ZNF148 / Fold change vs veh, ZNF148 / RFU, TAF9 / Fold change vs veh, TAF9 / RFU, SLC1A5 / Fold change vs veh, SLC1A5 / RFU, SLMO2 / Fold change vs veh, SLMO2 / RFU, ABCC4 / Fold change vs veh, ABCC4 / RFU, LOC101060439 /// RAP1B / Fold change vs veh, LOC101060439 /// RAP1B / RFU, RFX7 / Fold change vs veh, RFX7 / RFU, GTPBP10 / Fold change vs veh, GTPBP10 / RFU, CNEP1R1 / Fold change vs veh, CNEP1R1 / RFU, BIVM-ERCC5 /// ERCC5 / Fold change vs veh, BIVM-ERCC5 /// ERCC5 / RFU, ILF3 / Fold change vs veh, ILF3 / RFU 11762660_at / Fold change /veh 11762660_at / RFU VCAN (11757783_s_at) / Fold change /veh VCAN (11757783_s_at) / RFU DDX43 (11728927_at) / Fold change /veh DDX43 (11728927_at) / RFU KRT8 (11758188_x_at) / Fold change /veh KRT8 (11758188_x_at) / RFU NKD1 (11759106_at) / Fold change /veh NKD1 (11759106_at) / RFU SRD5A1 (11742802_a_at) / Fold change /veh SRD5A1 (11742802_a_at) / RFU TPSAB1 /// TPSB2 (11721975_s_at) / Fold change /veh TPSAB1 /// TPSB2 (11721975_s_at) / RFU GSTM3 (11746129_a_at) / Fold change /veh GSTM3 (11746129_a_at) / RFU IL23R (11737362_x_at) / Fold change /veh IL23R (11737362_x_at) / RFU TMEM51 (11727254_a_at) / Fold change /veh TMEM51 (11727254_a_at) / RFU PIWIL2 (11732686_x_at) / Fold change /veh PIWIL2 (11732686_x_at) / RFU ORM1 (11744905_x_at) / Fold change /veh ORM1 (11744905_x_at) / RFU CCDC152 (11743942_at) / Fold change /veh CCDC152 (11743942_at) / RFU ECM1 (11717891_a_at) / Fold change /veh ECM1 (11717891_a_at) / RFU IL23R (11748794_a_at) / Fold change /veh IL23R (11748794_a_at) / RFU TNFAIP8L3 (11732012_x_at) / Fold change /veh TNFAIP8L3 (11732012_x_at) / RFU MBOAT4 (11741988_at) / Fold change /veh MBOAT4 (11741988_at) / RFU 11764193_at / Fold change /veh 11764193_at / RFU TMEM53 (11763286_at) / Fold change /veh TMEM53 (11763286_at) / RFU MAGEB2 (11727129_at) / Fold change /veh MAGEB2 (11727129_at) / RFU TMEM200A (11744735_a_at) / Fold change /veh TMEM200A (11744735_a_at) / RFU CCDC152 (11751479_a_at) / Fold change /veh CCDC152 (11751479_a_at) / RFU FAM211A (11726209_a_at) / Fold change /veh FAM211A (11726209_a_at) / RFU RGS16 (11746705_a_at) / Fold change /veh RGS16 (11746705_a_at) / RFU VCAN (11755009_s_at) / Fold change /veh VCAN (11755009_s_at) / RFU RHOB (11743442_s_at) / Fold change /veh RHOB (11743442_s_at) / RFU RGS16 (11720943_a_at) / Fold change /veh RGS16 (11720943_a_at) / RFU RGS16 (11720944_at) / Fold change /veh RGS16 (11720944_at) / RFU, VPS4B / Fold change vs veh, VPS4B / RFU, CREB1 / Fold change vs veh, CREB1 / RFU, DNAJC13 / Fold change vs veh, DNAJC13 / RFU, GNAQ / Fold change vs veh, GNAQ / RFU, CDK5R1 / Fold change vs veh, CDK5R1 / RFU, ZRANB3 / Fold change vs veh, ZRANB3 / RFU, CUL4A / Fold change vs veh, CUL4A / RFU, CCNY / Fold change vs veh, CCNY / RFU, UFL1 / Fold change vs veh, UFL1 / RFU, COG3 / Fold change vs veh, COG3 / RFU, DIAPH2 / Fold change vs veh, DIAPH2 / RFU, SKA2 / Fold change vs veh, SKA2 / RFU, AFF3 / Fold change vs veh, AFF3 / RFU, LMF1 / Fold change vs veh, LMF1 / RFU, IPO11 / Fold change vs veh, IPO11 / RFU, DFFB / Fold change vs veh, DFFB / RFU, FOXP1 / Fold change vs veh, FOXP1 / RFU, CARD8 / Fold change vs veh, CARD8 / RFU, STRN3 / Fold change vs veh, STRN3 / RFU, ADK / Fold change vs veh, ADK / RFU, RASSF2 / Fold change vs veh, RASSF2 / RFU, WIPF1 / Fold change vs veh, WIPF1 / RFU, LARP1B / Fold change vs veh, LARP1B / RFU, RASA1 / Fold change vs veh, RASA1 / RFU, RB1 / Fold change vs veh, RB1 / RFU, PPFIA1 / Fold change vs veh, PPFIA1 / RFU, MAT2A / Fold change vs veh, MAT2A / RFU, CCT5 / Fold change vs veh, CCT5 / RFU, WDR92 / Fold change vs veh, WDR92 / RFU, CUX1 / Fold change vs veh, CUX1 / RFU, TTC7A / Fold change vs veh, TTC7A / RFU, TMEM135 / Fold change vs veh, TMEM135 / RFU, DEPTOR / Fold change vs veh, DEPTOR / RFU, CPM / Fold change vs veh, CPM / RFU, DNAJB6 / Fold change vs veh, DNAJB6 / RFU, CACNA2D3 / Fold change vs veh, CACNA2D3 / RFU, DTX4 / Fold change vs veh, DTX4 / RFU, TFCP2 / Fold change vs veh, TFCP2 / RFU, GMCL1 /// GMCL1P1 / Fold change vs veh, GMCL1 /// GMCL1P1 / RFU, AEBP2 / Fold change vs veh, AEBP2 / RFU, SNHG1 /// SNORD22 /// SNORD25 /// SNORD26 /// SNORD27 /// SNORD28 /// SNORD29 /// SNORD31 / Fold change vs veh, SNHG1 /// SNORD22 /// SNORD25 /// SNORD26 /// SNORD27 /// SNORD28 /// SNORD29 /// SNORD31 / Fold change (Aza/veh), C12orf56 (ProbeSet 11735607_a_at) / Fold change (ACY-1035/veh), C12orf56 (ProbeSet 11735607_a_at) / Fold change (Aza/veh), FGFR1OP (ProbeSet 11751329_s_at) / Fold change (ACY-1035/veh), FGFR1OP (ProbeSet 11751329_s_at) / Fold change (Aza/veh), VPS36 (ProbeSet 11739960_a_at) / Fold change (ACY-1035/veh), VPS36 (ProbeSet 11739960_a_at) / RFU SYPL1 (11715823_x_at) / Fold change /veh SYPL1 (11715823_x_at) / RFU IGFBP7 (11715501_s_at) / Fold change /veh IGFBP7 (11715501_s_at) / RFU REEP3 (11722064_at) / Fold change /veh REEP3 (11722064_at) / RFU IGLL1 (11728026_x_at) / Fold change /veh IGLL1 (11728026_x_at): dose or concentration left out as unconfirmed
Settings: MV-4-11 cells, 48 hours

## Nc1ncn([C@@H]2O[C@H](CO)[C@@H](O)[C@H]2O)c(=O)n1 [azacitidine]
  RFU HLA-DPB1 (11760878_x_at): 15.97 RFU
